{"source": "patent US4176009A", "about": "“Method of measuring collagenase activity” (Ajinomoto Co., Inc., priority 1976, dated 1979)", "key": {"non-specific peptidases": {"system": "non-specific peptidases", "assay": "Rate of hydrolysis of DNP-peptide derivatives by non-specific peptidases (Example 15)", "type": "biochemical, human", "details": "5×10^-4 M peptide, 37° C., pH 7.5; average of three experiments; extraction with ethyl acetate (* compounds: ethyl acetate-n-butanol 1:0.15)", "procedure": "(§1) Purified collagenase used in Examples was prepared from cultured media of tadpole skin explants as described in Biochem. Biophs. Acta, 263 564(1972), and non-specific peptidases were prepared by subjecting 5 ml of fresh adult human serum to chromatography on a calibrated Sephadex G-200 superfine gel column equilibrated with 0.05 M Tris-HCl buffer, pH 7.5, containing 0.15 M NaCl and 5 mM CaCl2, and gathering the effluent fractions corresponding to molecular weights of 100,000-180,000.\n(§2) Various DNP-peptide derivatives were dissolved in 0.05 M Tris-HCl buffer, pH 7.5, containing 0.15 M NaCl, 5 mM CaCl2 and 0.02% bovine serum albumin to make a concentration of 5×10^-4 M. 0.1 ml Each of the peptide derivative solutions was mixed with an equal volume of purified collagenase (6.2 U/ml) or non-specific peptidases and incubated for various periods at 37° C. After stopping the enzyme reaction by adding 0.5 ml of 1 M HCl, the DNP-peptide fragments released were extracted by vigorous shaking with 1 ml of ethylacetate or ethyl acetate-n-butanol (1:0.15, V/V), and worked up as in Example 12."}, "purified collagenase [1]": {"system": "purified collagenase", "assay": "Rate of hydrolysis of DNP-peptide derivatives by purified collagenase (Example 15)", "type": "biochemical, tadpole", "details": "5×10^-4 M peptide, purified collagenase 6.2 U/ml, 37° C., pH 7.5; average of three experiments; extraction with ethyl acetate (* compounds: ethyl acetate-n-butanol 1:0.15)", "procedure": "as §1, §2"}, "purified collagenase [2]": {"system": "purified collagenase", "assay": "Time course of hydrolysis of substrate solutions by purified collagenase (Example 12)", "type": "biochemical, tadpole", "details": "for 00365 (absorbance of the organic layer at 365 nm): pH 7.5", "procedure": "as §1\nDNP-Pro-Gln-Gly-Ile-Ala-Gly-Gln-D-Arg-OH.CH3 COOH.H2 O (4.96 mg) was neutralized with 0.1N sodium hydroxide, and dissolved in 0.05M tris-HCl buffer, pH 7.5, containing 0.15 M NaCl and 5 m MCaCl2 to make 10 ml of the substrate solution (a) having a concentration of 5×10^-4 M. The substrate solution (b) was also prepared similarly by using DNP-Gln-Gly-Ile-Ala-Gly-Gln-D-Arg-OH.CH3 COOH.H2 O (4.48 mg).\n0.9 ml Each of the substrate solutions was diluted with 0.88 ml of 0.05M tris-HCl buffer, pH 7.5, containing 0.15 M NaCl, and 5 m MCaCl2. The resulting solution was mixed with 0.02 ml of purified collagenase, and incubated. 0.2 ml Aliquots of the reaction mixture were taken out at 0, 10, 20, 40, 60 and 120 minutes, and mixed with 0.5 ml of 1M hydrochloric acid for stopping the enzyme reaction.\n(§3) The DNP-peptide fragments released were extracted by vigorous shaking with 1 ml of ethyl acetate-n-butanol (1:0.15, V/V) followed by centrifugation at 3,000-5,000 rpm and room temperature for 10 minutes to separate two layers completely. The degree of hydrolysis was determined by measuring the absorbance of the organic layer at 365 nm."}, "[3]": {"system": "collagenase in synovial fluids", "assay": "Hydrolysis of substrate solutions by synovial fluids from patients; collagenase activity (Example 14)", "type": "biochemical, human", "details": "for OD365/0.1 ml ohr: 0 hr; for OD365/0.1 ml 2hr: 2 hr at 37° C.; for OD365/0.1 ml increment: 2 hr minus 0 hr", "procedure": "as §3\n0.2 ml Each of the substrate (solutions(a) and (b) prepared in Example 12 was mixed with 0.1 ml of synovial fluids from patients with osteoarthritis and rheumatoid arthritis, and incubated for 2 hours at 37° C. After stopping the enzyme reaction by adding 0.5 ml of 1 M hydrochloric acid, the DNP-peptide fragments released were extracted by vigorous shaking with 2 ml of ethyl acetate-n-butanol (1:0.15, V/V), and worked up as in Example 12 to obtain the collagenase activities."}, "[4]": {"details": "synovial fluid of case five, RA"}, "[5]": {"details": "synovial fluid of case four, OA"}, "[6]": {"details": "synovial fluid of case three, RA"}}, "note": "Non-standard residues stand in square brackets, D forms with d. Residues, ends and D or L forms follow the SMILES beside them. *: point of attachment. Dnp = O=[N+]([O-])c1ccc(*)c([N+](=O)[O-])c1", "data": [{"compound": "CC[C@H](C)[C@H](NC(=O)CNC(=O)[C@H](CCC(N)=O)NC(=O)[C@@H]1CCCN1c1ccc([N+](=O)[O-])cc1[N+](=O)[O-])C(=O)N[C@@H](C)C(=O)NCC(=O)N[C@H](CCCNC(=N)N)C(=O)O", "note": "[Example 8, DNP-Pro-Gln-Gly-Ile-Ala-Gly-D-Arg-OH] (Dnp-PQGIAG[dR]-OH)", "values": [{"measurement": "Rate of hydrolysis by non-specific peptidases", "setting": "non-specific peptidases", "value": 0.021, "unit": "OD365/hr"}, {"measurement": "Rate of hydrolysis by Collagenase", "setting": "purified collagenase [1]", "value": 0.157, "unit": "OD365/hr"}]}, {"compound": "CC[C@H](C)[C@H](NC(=O)CNC(=O)[C@H](CC(C)C)NC(=O)[C@@H]1CCCN1c1ccc([N+](=O)[O-])cc1[N+](=O)[O-])C(=O)N[C@@H](C)C(=O)NCC(=O)N[C@@H](CCC(N)=O)C(=O)N[C@H](CCCNC(=N)N)C(=O)O", "note": "[Example 9, DNP-Pro-Leu-Gly-Ile-Ala-Gly-Gln-D-Arg-OH] (Dnp-PLGIAGQ[dR]-OH)", "values": [{"measurement": "Rate of hydrolysis by non-specific peptidases", "setting": "non-specific peptidases", "value": 0, "unit": "OD365/hr"}, {"measurement": "Rate of hydrolysis by Collagenase", "setting": "purified collagenase [1]", "value": 0.276, "unit": "OD365/hr"}]}, {"compound": "CC[C@H](C)[C@H](NC(=O)CNC(=O)[C@H](CCC(N)=O)Nc1ccc([N+](=O)[O-])cc1[N+](=O)[O-])C(=O)N[C@@H](C)C(=O)NCC(=O)N[C@@H](CCC(N)=O)C(=O)N[C@H](CCCNC(=N)N)C(=O)O", "note": "[Example 10, DNP-Gln-Gly-Ile-Ala-Gly-Gln-D-Arg-OH]", "values": [{"measurement": "00365 (absorbance of the organic layer at 365 nm)", "setting": "purified collagenase [2]; incubation time 0 min", "value": 0.027}, {"measurement": "increment of 00365", "setting": "purified collagenase [2]; incubation time 10 min", "value": 0}, {"measurement": "00365 (absorbance of the organic layer at 365 nm)", "setting": "purified collagenase [2]; incubation time 10 min", "value": 0.027}, {"measurement": "increment of 00365", "setting": "purified collagenase [2]; incubation time 20 min", "value": 0}, {"measurement": "00365 (absorbance of the organic layer at 365 nm)", "setting": "purified collagenase [2]; incubation time 20 min", "value": 0.027}, {"measurement": "increment of 00365", "setting": "purified collagenase [2]; incubation time 40 min", "value": 0.002}, {"measurement": "00365 (absorbance of the organic layer at 365 nm)", "setting": "purified collagenase [2]; incubation time 40 min", "value": 0.030}, {"measurement": "increment of 00365", "setting": "purified collagenase [2]; incubation time 60 min", "value": 0.002}, {"measurement": "00365 (absorbance of the organic layer at 365 nm)", "setting": "purified collagenase [2]; incubation time 60 min", "value": 0.029}, {"measurement": "increment of 00365", "setting": "purified collagenase [2]; incubation time 120 min", "value": 0}, {"measurement": "00365 (absorbance of the organic layer at 365 nm)", "setting": "purified collagenase [2]; incubation time 120 min", "value": 0.027}, {"measurement": "Rate of hydrolysis by non-specific peptidases", "setting": "non-specific peptidases", "value": 0, "unit": "OD365/hr"}, {"measurement": "OD365/0.1 ml ohr", "setting": "[3]; [4]", "value": 0.045, "unit": "OD365/0.1 ml"}, {"measurement": "OD365/0.1 ml 2hr", "setting": "[3]; [4]", "value": 0.045, "unit": "OD365/0.1 ml"}, {"measurement": "OD365/0.1 ml increment", "setting": "[3]; [4]", "value": 0.000, "unit": "OD365/0.1 ml"}, {"measurement": "OD365/0.1 ml ohr", "setting": "[3]; [5]", "value": 0.038, "unit": "OD365/0.1 ml"}, {"measurement": "OD365/0.1 ml 2hr", "setting": "[3]; [5]", "value": 0.040, "unit": "OD365/0.1 ml"}, {"measurement": "OD365/0.1 ml increment", "setting": "[3]; [5]", "value": 0.002, "unit": "OD365/0.1 ml"}, {"measurement": "OD365/0.1 ml ohr", "setting": "[3]; synovial fluid of case one, RA", "value": 0.049, "unit": "OD365/0.1 ml"}, {"measurement": "OD365/0.1 ml 2hr", "setting": "[3]; synovial fluid of case one, RA", "value": 0.046, "unit": "OD365/0.1 ml"}, {"measurement": "OD365/0.1 ml increment", "setting": "[3]; synovial fluid of case one, RA", "value": 0, "unit": "OD365/0.1 ml"}, {"measurement": "OD365/0.1 ml ohr", "setting": "[3]; synovial fluid of case six, OA", "value": 0.050, "unit": "OD365/0.1 ml"}, {"measurement": "OD365/0.1 ml 2hr", "setting": "[3]; synovial fluid of case six, OA", "value": 0.041, "unit": "OD365/0.1 ml"}, {"measurement": "OD365/0.1 ml increment", "setting": "[3]; synovial fluid of case six, OA", "value": 0, "unit": "OD365/0.1 ml"}, {"measurement": "OD365/0.1 ml ohr", "setting": "[3]; [6]", "value": 0.050, "unit": "OD365/0.1 ml"}, {"measurement": "OD365/0.1 ml 2hr", "setting": "[3]; [6]", "value": 0.051, "unit": "OD365/0.1 ml"}, {"measurement": "OD365/0.1 ml increment", "setting": "[3]; [6]", "value": 0.001, "unit": "OD365/0.1 ml"}, {"measurement": "OD365/0.1 ml ohr", "setting": "[3]; synovial fluid of case two, OA", "value": 0.035, "unit": "OD365/0.1 ml"}, {"measurement": "OD365/0.1 ml 2hr", "setting": "[3]; synovial fluid of case two, OA", "value": 0.038, "unit": "OD365/0.1 ml"}, {"measurement": "OD365/0.1 ml increment", "setting": "[3]; synovial fluid of case two, OA", "value": 0.003, "unit": "OD365/0.1 ml"}, {"measurement": "Rate of hydrolysis by Collagenase", "setting": "purified collagenase [1]", "value": 0, "unit": "OD365/hr"}]}, {"compound": "CC[C@H](C)[C@H](NC(=O)CNC(=O)[C@H](C)Nc1ccc([N+](=O)[O-])cc1[N+](=O)[O-])C(=O)N[C@@H](C)C(=O)NCC(=O)N[C@@H](CCC(N)=O)C(=O)N[C@H](CCCNC(=N)N)C(=O)O", "note": "[Example 11, DNP-Ala-Gly-Ile-Ala-Gly-Gln-D-Arg-OH]", "values": [{"measurement": "Rate of hydrolysis by non-specific peptidases", "setting": "non-specific peptidases", "value": 0.016, "unit": "OD365/hr"}, {"measurement": "Rate of hydrolysis by Collagenase", "setting": "purified collagenase [1]", "value": 0, "unit": "OD365/hr"}]}]}
